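Grown in 96-well plates, cells were treated for 48 hours with each compound at five concentrations. Insufficient inhibition: endpoint recorded as highest concentration tested. At the TGI there is no net growth.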
How the values were obtained:
Assay in all cases: NCI tumour cell line growth inhibition, 48 h
DMS 114 small cell lung = test system: DMS 114 small cell lung
ACHN renal = test system: ACHN renal
NCI-H226 lung = test system: NCI-H226 lung
SF-295 CNS = test system: SF-295 CNS
UACC-257 melanoma = test system: UACC-257 melanoma
SK-OV-3 ovarian = test system: SK-OV-3 ovarian
MALME-3M melanoma = test system: MALME-3M melanoma
LXFL 529 NSCLC = test system: LXFL 529 NSCLC
OVCAR-5 ovarian = test system: OVCAR-5 ovarian
EKVX NSCLC = test system: EKVX NSCLC
U251 CNS = test system: U251 CNS
IGROV1 ovarian = test system: IGROV1 ovarian
KM12 colon = test system: KM12 colon
SF-539 CNS = test system: SF-539 CNS
HT29 colon = test system: HT29 colon
RPMI-8226 leukemia = test system: RPMI-8226 leukemia
CAKI-1 renal = test system: CAKI-1 renal
OVCAR-8 ovarian = test system: OVCAR-8 ovarian
HCT-15 colon = test system: HCT-15 colon
K-562 leukemia = test system: K-562 leukemia
SK-MEL-28 melanoma = test system: SK-MEL-28 melanoma
SK-MEL-2 melanoma = test system: SK-MEL-2 melanoma
HOP-62 NSCLC = test system: HOP-62 NSCLC
SK-MEL-5 melanoma = test system: SK-MEL-5 melanoma
NCI-H23 lung = test system: NCI-H23 lung
SN12C renal = test system: SN12C renal
SW-620 colon = test system: SW-620 colon
XF 498 CNS = test system: XF 498 CNS
786-0 renal = test system: 786-0 renal
HCT-116 colon = test system: HCT-116 colon
SF-268 CNS = test system: SF-268 CNS
M14 melanoma = test system: M14 melanoma
KM20L2 colon = test system: KM20L2 colon
NCI-H522 lung = test system: NCI-H522 lung
HOP-92 NSCLC = test system: HOP-92 NSCLC
SNB-75 CNS = test system: SNB-75 CNS
DMS 273 small cell lung = test system: DMS 273 small cell lung
A498 renal = test system: A498 renal
LOX IMVI melanoma = test system: LOX IMVI melanoma
HOP-18 NSCLC = test system: HOP-18 NSCLC
RXF 393 renal = test system: RXF 393 renal
TK-10 renal = test system: TK-10 renal
OVCAR-3 ovarian = test system: OVCAR-3 ovarian
UO-31 renal = test system: UO-31 renal
SNB-19 CNS = test system: SNB-19 CNS
OVCAR-4 ovarian = test system: OVCAR-4 ovarian
M19-MEL melanoma = test system: M19-MEL melanoma
COLO 205 colon = test system: COLO 205 colon
SNB-78 CNS = test system: SNB-78 CNS
UACC-62 melanoma = test system: UACC-62 melanoma
NCI-H460 lung = test system: NCI-H460 lung
HCC-2998 colon = test system: HCC-2998 colon

SMILES: COc1ccccc1NC(=O)C1=C(C)NC(C)=C(C(=O)Nc2ccccc2OC)C1c1ccc(C)cc1
- TGI (DMS 114 small cell lung): > 100 µM
- TGI (ACHN renal): > 100 µM
- TGI (NCI-H226 lung): > 100 µM
- TGI (SF-295 CNS): > 100 µM
- TGI (UACC-257 melanoma): > 100 µM
- TGI (SK-OV-3 ovarian): > 100 µM
- TGI (MALME-3M melanoma): > 100 µM
- TGI (LXFL 529 NSCLC): > 100 µM
- TGI (OVCAR-5 ovarian): > 100 µM
- TGI (EKVX NSCLC): > 100 µM
- TGI (U251 CNS): > 100 µM
- TGI (IGROV1 ovarian): > 100 µM
- TGI (KM12 colon): > 100 µM
- TGI (SF-539 CNS): > 100 µM
- TGI (HT29 colon): > 100 µM
- TGI (RPMI-8226 leukemia): > 100 µM
- TGI (CAKI-1 renal): > 100 µM
- TGI (OVCAR-8 ovarian): > 100 µM
- TGI (HCT-15 colon): > 100 µM
- TGI (K-562 leukemia): > 100 µM
- TGI (SK-MEL-28 melanoma): > 100 µM
- TGI (SK-MEL-2 melanoma): > 100 µM
- TGI (HOP-62 NSCLC): > 100 µM
- TGI (SK-MEL-5 melanoma): > 100 µM
- TGI (NCI-H23 lung): > 100 µM
- TGI (SN12C renal): > 100 µM
- TGI (SW-620 colon): > 100 µM
- TGI (XF 498 CNS): > 100 µM
- TGI (786-0 renal): > 100 µM
- TGI (HCT-116 colon): > 100 µM
- TGI (SF-268 CNS): > 100 µM
- TGI (M14 melanoma): > 100 µM
- TGI (KM20L2 colon): > 100 µM
- TGI (NCI-H522 lung): > 100 µM
- TGI (HOP-92 NSCLC): > 100 µM
- TGI (SNB-75 CNS): > 100 µM
- TGI (DMS 273 small cell lung): > 100 µM
- TGI (A498 renal): 82.7 µM
- TGI (LOX IMVI melanoma): > 100 µM
- TGI (HOP-18 NSCLC): > 100 µM
- TGI (RXF 393 renal): > 100 µM
- TGI (TK-10 renal): > 100 µM
- TGI (OVCAR-3 ovarian): > 100 µM
- TGI (UO-31 renal): > 100 µM
- TGI (SNB-19 CNS): > 100 µM
- TGI (OVCAR-4 ovarian): > 100 µM
- TGI (M19-MEL melanoma): > 100 µM
- TGI (COLO 205 colon): 44 µM
- TGI (SNB-78 CNS): > 100 µM
- TGI (UACC-62 melanoma): > 100 µM
- TGI (NCI-H460 lung): > 100 µM
- TGI (HCC-2998 colon): > 100 µM
